This is an account of results in patent publication US11666562B2, “Ilaprazole for inhibiting the release of enveloped viruses from cells” (Northwestern University, priority 2020, dated 2023).

The test deals with T1, Tsg101-UEV (Tsg101 amino acids 1-145) (Homo sapiens, UniProt Q99816).
T1 construct: The recombinant Tsg101 fragment (amino acids 1-145), prepared as described above in Materials and Methods; His6 (N); thrombin protease cleavage site (N); made in house; host or cells: E. coli ROSETTA 2 (DE3) pLysS
T1 sequence (Q99816 1-145): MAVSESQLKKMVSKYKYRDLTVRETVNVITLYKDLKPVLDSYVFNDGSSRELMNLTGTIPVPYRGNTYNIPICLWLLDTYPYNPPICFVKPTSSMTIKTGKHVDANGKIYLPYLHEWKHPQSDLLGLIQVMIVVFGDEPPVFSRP
In words: Fluorescence thermal shift (FTS) assay, binding to Tsg101-UEV. The conditions noted are these: for Tm (melting temperature) shift of Tsg101-UEV: FTS, Sypro-Orange, no DTT. Here is the method: The fluorescence-based thermal shift assay is based on the observation that a protein unfolds upon heating, exposing the hydrophobic residues within its tertiary structure. The unfolding temperature (Tm) is determined by the protein's primary sequence and solution environment. The FTS assay uses a fluorescent dye sensitive to a hydrophobic environment to probe protein stability and its modulation by small molecule ligands. The dye has a low fluorescence quantum yield when in a polar environment. Once in contact with the hydrophobic core normally buried within a folded protein that has become exposed during the thermal unfolding (melting) process, the quantum yield of the dye increases, thus providing a reporting signal. Furthermore, a protein's stability can be affected by ligand binding, resulting in an increase or decrease in its melting temperature. FTS assay uses the Tm shift upon binding of a ligand to identify hit compounds for drug discovery.
Identification of prazole compounds that bind the UEV ubiquitin-binding domain of Tsg101. We screened chemical compounds using a fluorescence thermal shift (FTS) assay (27, 28) to identify small molecules that bind directly to a truncated form of Tsg101 (amino acids 1-145) which contains the Ubiquitin E2 variant (UEV) ubiquitin-binding domain (FIG. 1). The UEV, which contains the PT/SAP binding domain in addition to the ubiquitin-binding domain, provides chaperone functions to HIV-1 Gag that is independent of its interaction with the PS/TAP motif, and contains the prazole binding site (5). This truncated Tsg101, called Tsg101-UEV, was used because full-length Tsg101 has significant solubility issues in aqueous solution. Tsg101 is an adaptor protein and thus lacks a readily deployable functional assay, making FTS a tractable approach to identify interacting compounds. FTS monitors protein thermal denaturation using SYPRO-Orange, a dye which fluoresces when bound to hydrophobic surfaces, which allows monitoring of the changes in hydrophobic surface exposure during protein denaturation (27). Since ligand binding affects protein thermal stability, it can be detected through modulation of protein thermal denaturation (melting) as a shift in melting temperature (Tm). Tsg101-UEV has a well-defined melting curve suitable for FTS. We used the FTS assay to identify compounds that bind to Tsg101-UEV.
Purification of Tsg101 (1-145). N-terminally His6-tagged Tsg101 UEV domain (amino acids 1-145), called Tsg101-UEV, was encoded in a pET-28b vector (Novagen—EMD Millipore), which also included a thrombin protease cleavage site (His6-Thrombin Site-Tsg101, 1-145). Tsg101-UEV was grown in LB broth with Kanamycin (30 μg/ml) in ROSETTA 2 (DE3) pLysS E. coli competent cells (EMD Millipore) and induced with 1 mM IPTG at room temperature for 3 h. Bacteria were collected by centrifugation at 4,000 rpm for 10 min at […]. Bacteria were suspended in 50 ml binding buffer (20 mM Tris-HCl, pH 7.9, 0.5 M NaCl, 5 mM Imidazole) with 1 mM PMSF, 0.1% NP40, and a Protease Inhibitor Cocktail Tablet (Roche) and sonicated for 3.5 min on ice. The sonicate was spun at 9,000 rpm for 1 h at […] in a Sorvall centrifuge. The supernatant was collected and passed through a 1.5 ml Ni-NTA Agarose column. The column was washed with 20 mM Tris-HCl, pH 7.9, 0.5 M NaCl, 30 mM Imidazole wash buffer. […] Protein concentration was determined with a Nano Drop Spectrophotometer at […]. […]

Each structure is given as a SMILES string.

In the case of `COc1ccnc(C[S+]([O-])c2nc3ccc(-n4cccc4)cc3[nH]2)c1C` (stereo not shown) [Ilaprazole, 2-[(4-methoxy-3-methylpyridin-2-yl)methylsulfinyl]-6-pyrrol-1-yl-1H-benzimidazole], the “Tm (melting temperature) shift of Tsg101-UEV” value (“Tm (melting temperature) shift” below) is on record as “largest thermal shift”. Besides, the “Tm shift of Tsg101-UEV on addition of DTT” value (FTS with reducing agent DTT) is reported as “blocked by the addition of DTT”.
Regarding `COc1ccc2[nH]c([S+]([O-])Cc3ncc(C)c(OC)c3C)nc2n1` (stereo not shown) [Tenatoprazole], the “Tm (melting temperature) shift” value is on record as “dose-dependent shift in the Tm”. In addition, for the setting “listed as tenatoprazole”, the “Tm (melting temperature) shift” value is on record as “destabilizes the native protein structure”.
